Source: patent publication US12692249B2, “WDR5 inhibitors and modulators” (Vanderbilt University, priority 2019, dated 2026)

Legend:
[1] = test system: MV4:11 human cancer cell lines; test: Cellular viability / anti-proliferative assay, CellTiter-Glo, 5 day protocol; format: cell-based; conditions: Homo sapiens, MV4-11, 120 h, MV4:11 cells; 5 day incubation; CellTiter-Glo; mean of at least two replicates; read-out: GI50 on cellular proliferation of MV4:11 human cancer cell lines
Procedure, shortened: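 Luminescent ATP-based viability (CellTiter-Glo) after a 5-day exposure gave GI50 via sigmoidal fitting, averaged over two or more replicates. Compounds spanned 22 two-fold steps down from 30 μM at 0.3% DMSO, on 200 MV-4-11 cells per well grown in IMDM plus 10% FBS.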

WDR5 = WDR5 (Homo sapiens, UniProt P61964); test: TR-FRET competition binding assay, displacement of 10mer-Thr-FAM MLL peptide probe from His-tagged WDR5; conditions: WDR5-His tag (residues 24-334) 2 nM; 10mer-Thr-FAM 150 nM; 60 min, room temperature; read-out: Ki for Inhibition of WDR5 by TR-FRET assay

In the case of Cc1cc(OCCN(C)C)c2cncc(N3CCc4c(cc(Cn5ccnc5)cc4-c4cn(C)nc4C(F)(F)F)C3=O)c2c1 [Example 106, 7-((1H-Imidazol-1-yl)methyl)-8′-(2-(dimethylamino)ethoxy)-6′-methyl-5-(1-methyl-3-(trifluoromethyl)-1H-pyrazol-4-yl)-3,4-dihydro-1H-[2,4′-biisoquinolin]-1-one], the GI50 [1] is reported as under 20 nM and the Ki (WDR5) is reported as 0.045 nM.
For Cc1ccc2cncc(N3CCc4c(cc(Cc5ncc[nH]5)cc4-c4cn(C)nc4C(F)(F)F)C3=O)c2c1 [Example 56, 7-((1H-Imidazol-2-yl)methyl)-6′-methyl-5-(1-methyl-3-(trifluoromethyl)-1H-pyrazol-4-yl)-3,4-dihydro-1H-[2,4′-biisoquinolin]-1-one], the GI50 [1] was 97 nM and the Ki (WDR5) was 0.031 nM.
In the case of CCc1cc(OC)c2nc(C)cc(N3CCc4c(cc(Cn5ccnc5)cc4-c4cn(C)nc4C(F)(F)F)C3=O)c2c1 [Example 120, 7-((1H-Imidazol-1-yl)methyl)-2-(6-ethyl-8-methoxy-2-methylquinolin-4-yl)-5-(1-methyl-3-(trifluoromethyl)-1H-pyrazol-4-yl)-3,4-dihydroisoquinolin-1(2H)-one], the GI50 [1] is reported as under 20 nM and the Ki (WDR5) is reported as 0.023 nM.
Molecule CCc1cc2c(N3CCc4c(cc(Cn5ccnc5)cc4-c4cn(C)nc4C(F)(F)F)C3=O)ccnc2c(OC)n1 [Example 207, 7-((1H-Imidazol-1-yl)methyl)-2-(6-ethyl-8-methoxy-1,7-naphthyridin-4-yl)-5-(1-methyl-3-(trifluoromethyl)-1H-pyrazol-4-yl)-3,4-dihydroisoquinolin-1(2H)-one] has a GI50 [1] of under 20 nM and a Ki (WDR5) of under 0.02 nM.
In the case of CCc1cc(CCC(=O)N2CCOCC2)c2nc(C)cc(N3CCc4c(cc(Cn5ccnc5)cc4-c4cn(C)nc4C(F)(F)F)C3=O)c2c1 [Example 153, 7-((1H-Imidazol-1-yl)methyl)-2-(6-ethyl-2-methyl-8-(3-morpholino-3-oxopropyl)quinolin-4-yl)-5-(1b-methyl-3-(trifluoromethyl)-1H-pyrazol-4-yl)-3,4-dihydroisoquinolin-1(2H)-one], the GI50 [1] is reported as 47 nM and the Ki (WDR5) is reported as 0.022 nM.
Work on COc1cc(CN2CCOCC2)c2nccc(N3CCc4c(cc(Cn5ccnc5)cc4-c4cn(C)nc4C(F)(F)F)C3=O)c2c1 [Example 133, 7-((1H-Imidazol-1-yl)methyl)-2-(6-methoxy-8-(morpholinomethyl)quinolin-4-yl)-5-(1-methyl-3-(trifluoromethyl)-1H-pyrazol-4-yl)-3,4-dihydroisoquinolin-1(2H)-one] yielded a GI50 [1] of under 20 nM and a Ki (WDR5) of 0.035 nM.
With COc1cc(C(=O)N2CCCC2)c2nccc(N3CCc4c(cc(Cn5ccnc5)cc4-c4cn(C)nc4C(F)(F)F)C3=O)c2c1 [Example 44, 7-((1H-Imidazol-1-yl)methyl)-2-(6-methoxy-8-(pyrrolidine-1-carbonyl)quinolin-4-yl)-5-(1-methyl-3-(trifluoromethyl)-1H-pyrazol-4-yl)-3,4-dihydroisoquinolin-1(2H)-one] the GI50 [1] was 353 nM and the Ki (WDR5) was under 0.02 nM.
Work on COc1cc(OC)c2nc(C)cc(N3CCc4c(cc(Cn5ccnc5)cc4-c4cn(C)nc4C(F)(F)F)C3=O)c2c1 [Example 18, 7-((1H-Imidazol-1-yl)methyl)-2-(6,8-dimethoxy-2-methylquinolin-4-yl)-5-(1-methyl-3-(trifluoromethyl)-1H-pyrazol-4-yl)-3,4-dihydroisoquinolin-1(2H)-one] yielded a GI50 [1] of under 20 nM and a Ki (WDR5) of under 0.02 nM.
With COc1ccc2nccc(N3CCc4c(cc(Cn5ccnc5)cc4-c4cn(C)nc4C(F)(F)F)C3=O)c2c1 [Example 13, 7-((1H-Imidazol-1-yl)methyl)-2-(6-methoxyquinolin-4-yl)-5-(1-methyl-3-(trifluoromethyl)-1H-pyrazol-4-yl)-3,4-dihydroisoquinolin-1(2H)-one] the GI50 [1] was 45 nM and the Ki (WDR5) was under 0.02 nM.
COc1cc2c(N3CCc4c(cc(Cn5ccnc5C)cc4-c4cn(C)nc4C(F)(F)F)C3=O)ccnc2cc1C [Example 6, 2-(6-Methoxy-7-methylquinolin-4-yl)-7-((2-methyl-1H-imidazol-1-yl)methyl)-5-(1-methyl-3-(trifluoromethyl)-1H-pyrazol-4-yl)-3,4-dihydroisoquinolin-1(2H)-one] was tested, and the GI50 [1] was 32 nM and the Ki (WDR5) was 0.024 nM.
For COc1ccc2c(OC)ncc(N3CCc4c(cc(Cn5ccnc5)cc4-c4cn(C)nc4C(F)(F)F)C3=O)c2c1 [Example 22, 7-((1H-imidazol-1-yl)methyl)-1′,6′-dimethoxy-5-(1-methyl-3-(trifluoromethyl)-1H-pyrazol-4-yl)-3,4-dihydro-1H-[2,4′-biisoquinolin]-one], the GI50 [1] was 111 nM and the Ki (WDR5) was 0.029 nM.
Molecule CCc1cc(-c2cncnc2)c2nccc(N3CCc4c(cc(Cn5ccnc5)cc4-c4cn(C)nc4C(F)(F)F)C3=O)c2c1 [Example 96, 7-((1H-Imidazol-1-yl)methyl)-2-(6-ethyl-8-(pyrimidin-5-yl)quinolin-4-yl)-5-(1-methyl-3-(trifluoromethyl)-1H-pyrazol-4-yl)-3,4-dihydroisoquinolin-1(2H)-one] has a GI50 [1] of under 20 nM and a Ki (WDR5) of under 0.02 nM.
In the case of COc1ccc2c(c1)c(N1CCc3c(cc(Cn4ccnc4C)cc3-c3cn(C)nc3C(F)(F)F)C1=O)cn2C [Example 78, 2-(5-Methoxy-1-methyl-1H-indol-3-yl)-7-((2-methyl-1H-imidazol-1-yl)methyl)-5-(1-methyl-3-(trifluoromethyl)-1H-pyrazol-4-yl)-3,4-dihydroisoquinolin-1(2H)-one], the GI50 [1] is reported as 48 nM and the Ki (WDR5) is reported as 0.029 nM.
For COc1cc(N2CCC(OC)CC2)c2nc(C)cc(N3CCc4c(cc(Cn5ccnc5)cc4-c4cn(C)nc4C(F)(F)F)C3=O)c2c1 [Example 195, 7-((1H-Imidazol-1-yl)methyl)-2-(6-methoxy-8-(4-methoxypiperidin-1-yl)-2-methylquinolin-4-yl)-5-(1-methyl-3-(trifluoromethyl)-1H-pyrazol-4-yl)-3,4-dihydroisoquinolin-1(2H)-one], the GI50 [1] was under 20 nM and the Ki (WDR5) was under 0.02 nM.
CCc1cc(C(=O)NC2CCOCC2)c2nccc(N3CCc4c(cc(Cn5ccnc5)cc4-c4cn(C)nc4C(F)(F)F)C3=O)c2c1 [Example 171, 4-(7-((1H-Imidazol-1-yl)methyl)-5-(1-methyl-3-(trifluoromethyl)-1H-pyrazol-4-yl)-1-oxo-3,4-dihydroisoquinolin-2(1H)-yl)-6-ethyl-N-(tetrahydro-2H-pyran-4-yl)quinoline-8-carboxamide] showed a GI50 [1] of under 20 nM and a Ki (WDR5) of under 0.02 nM.
Work on COc1cnc2cccc(N3CCc4c(cc(Cn5ccnc5C)cc4-c4cn(C)nc4C(F)(F)F)C3=O)c2c1 [Example 3, 2-(3-Methoxyquinolin-5-yl)-7-((2-methyl-1H-imidazol-1-yl)methyl)-5-(1-methyl-3-(trifluoromethyl)-1H-pyrazol-4-yl)-3,4-dihydroisoquinolin-1(2H)-one] yielded a GI50 [1] of 20 nM and a Ki (WDR5) of under 0.02 nM.
In the case of COc1cc(-c2cn[nH]c2)c2nc(C)cc(N3CCc4c(cc(Cn5ccnc5)cc4-c4cn(C)nc4C(F)(F)F)C3=O)c2c1 [Example 201, 7-((1H-imidazol-1-yl)methyl)-2-(6-methoxy-2-methyl-8-(1H-pyrazol-4-yl)quinolin-4-yl)-5-(1-methyl-3-(trifluoromethyl)-1H-pyrazol-4-yl)-3,4-dihydroisoquinolin-1(2H)-one], the GI50 [1] is reported as 23 nM and the Ki (WDR5) is reported as 0.023 nM.
